What is called Vmax is the top rate of the reaction or transport when substrate is in excess. The term Kd denotes the concentration at which binding is half-saturated. A higher Kd goes with weaker binding.

Substitutions are numbered along the chain they refer to.

The source of these data is PMC9673926, “Nucleotide binding as an allosteric regulatory mechanism for Akkermansia muciniphila β-N-acetylhexosaminidase Am2136” (Gut Microbes, 2022).

The target in one assay is T1, Am2136 Y550A (Akkermansia muciniphila, UniProt B2UPR7, Y550A).
T1 sequence (B2UPR7 20-756 Y550A): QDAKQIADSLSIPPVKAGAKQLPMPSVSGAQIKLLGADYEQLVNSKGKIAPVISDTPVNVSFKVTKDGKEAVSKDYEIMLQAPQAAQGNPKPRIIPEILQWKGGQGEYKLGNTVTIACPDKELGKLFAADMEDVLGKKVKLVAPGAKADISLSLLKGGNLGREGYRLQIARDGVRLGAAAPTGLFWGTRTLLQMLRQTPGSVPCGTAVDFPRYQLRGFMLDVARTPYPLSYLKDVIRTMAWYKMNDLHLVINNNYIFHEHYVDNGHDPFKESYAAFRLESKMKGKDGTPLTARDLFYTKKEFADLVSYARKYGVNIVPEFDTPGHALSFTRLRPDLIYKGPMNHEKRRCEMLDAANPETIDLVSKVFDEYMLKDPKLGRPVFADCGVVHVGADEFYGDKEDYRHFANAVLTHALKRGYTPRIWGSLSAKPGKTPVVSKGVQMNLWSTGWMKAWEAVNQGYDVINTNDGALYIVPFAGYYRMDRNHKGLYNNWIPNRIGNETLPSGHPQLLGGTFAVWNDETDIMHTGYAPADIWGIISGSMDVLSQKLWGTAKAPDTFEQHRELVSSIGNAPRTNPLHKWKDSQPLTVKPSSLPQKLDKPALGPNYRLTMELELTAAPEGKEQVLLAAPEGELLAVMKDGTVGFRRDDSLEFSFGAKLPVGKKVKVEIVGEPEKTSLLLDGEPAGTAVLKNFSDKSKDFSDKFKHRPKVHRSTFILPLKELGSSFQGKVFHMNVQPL
Kind of assay: GDP regulated enzyme activity assay, mutant. Conditions: 1 mM GDP, substrate pNP-β-GlcNAc.

For the next assay, the target named is T2, Am2136 E649A (Akkermansia muciniphila, UniProt B2UPR7, E649A).
T2 sequence (B2UPR7 20-756 E649A): T1 sequence (B2UPR7 20-756 Y550A) with A531Y, E630A
Kind of assay: GDP regulated enzyme activity assay, mutant. Particulars: 1 mM GDP, substrate pNP-β-GlcNAc.

Another assay addresses T3, Am2136 R256A (Akkermansia muciniphila, UniProt B2UPR7, R256A).
T3 sequence (B2UPR7 20-756 R256A): T1 sequence (B2UPR7 20-756 Y550A) with R237A, A531Y
Kind of assay: Nucleotide binding affinity by intrinsic fluorescence, mutant. Also on record: The coding region (residue Q20-L756) of Am2136 without signal peptide was based on UniProt; 6XHis (N); made in house; host or cells: E. coli BL21 (DE3). Here is the method: The nucleotide binding ability was determined on Fluorescence Spectrometer Duetta (HORIBA) by measuring the change of peak intensity. The fluorescence was excited at 286 nm and emitted at 336 nm. And the measurement was processed under 400 V voltage with 2.5 nm excitation slit and 5 nm emission slit. The 120 μL reaction mixture contains 0–550 μM nucleotide, 5 μM proteins, 25 mM Tris pH 8.0 and 150 mM NaCl. The sample was incubated at 4°C for 5 min before testing.

As for `Nc1nc2c(ncn2[C@@H]2O[C@H](COP(=O)(O)OP(=O)(O)O)[C@@H](O)[C@H]2O)c(=O)[nH]1` [GDP], the results for the Vmax at Am2136 Y550A and on Am2136 E649A were 463 ± 7 µmol/min and 453 ± 6 µmol/min, respectively. Also, the equilibrium dissociation constant (Kd) on Am2136 R256A came out at 158 ± 10.9 µM.
